# Experimental data: patent US6559330B1, “CALCIUM COMPLEX OF [[(4R)-4-[BIS{CARBOXY-.KAPPA.O)METHYL]AMINO-.KAPPA.N]-6,9-BIS[(CARBOXY.KAPPA.O)METHYL]-1-[(4,4-DIPHENYLCYCLOHEXYL)OXY]-1-HYDROXY-2-OXA-6,9-DIAZA-1-PHOSPHAUNDECAN-11-YLIC-ACID-.KAPPA.N6,.KAPPA.N9,.KAPPA.011]1-OXIDATO(6-)]-, HEXAHYDROGEN, ITS SALTS, PHARMACEUTICAL AGENTS THAT …” (Schering Aktiengesellschaft, priority 1999, dated 2003)
# Tests used:
# [1] = HPLC content of Gd-MS-325 in the formulation after heating (100% method, external standard); type: physicochemical
# Description: The low content and the yellow coloration indicate decomposition.
# For comparison: Content after HPLC/95° C. (6 hours): 98.9%.
# [2] = molecular target: human serum albumin (HSA) (Homo sapiens, UniProt P02768); conditions: cited from earlier work
# [3] = blood pool agent; cited from earlier work
# human serum albumin (HSA), sequence (P02768 25-609): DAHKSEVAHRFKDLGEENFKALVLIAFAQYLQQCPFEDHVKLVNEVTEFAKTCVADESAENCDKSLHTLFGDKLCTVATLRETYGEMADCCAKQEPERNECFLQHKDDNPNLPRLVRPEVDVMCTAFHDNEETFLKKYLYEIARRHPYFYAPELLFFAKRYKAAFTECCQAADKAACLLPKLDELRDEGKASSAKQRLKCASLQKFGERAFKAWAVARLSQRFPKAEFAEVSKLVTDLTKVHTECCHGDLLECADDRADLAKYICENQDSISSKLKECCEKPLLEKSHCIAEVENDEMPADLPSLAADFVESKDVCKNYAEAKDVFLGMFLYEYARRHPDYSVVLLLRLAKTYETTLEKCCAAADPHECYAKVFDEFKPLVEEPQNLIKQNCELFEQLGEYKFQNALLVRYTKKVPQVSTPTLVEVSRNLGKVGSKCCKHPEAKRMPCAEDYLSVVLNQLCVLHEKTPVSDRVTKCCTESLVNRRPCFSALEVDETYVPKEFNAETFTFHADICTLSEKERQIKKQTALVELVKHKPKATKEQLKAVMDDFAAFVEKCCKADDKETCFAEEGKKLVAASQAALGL
substance,measurement,setting,value
"gadolinato(3-),[[(4R)-4[bis[(carboxy-.kappa.O)methyl]amino-.kappa.N]-6,9-bis[(carboxy-.kappa.O)methyl]-1-[(4,4-diphenylcyclohexyl)oxy]-1-hydroxy-2-oxa-6,9-diaza-1-phosphaundecan-11-ylic-acid-.kappa.N6,.kappa.N9,kappa.011]1-oxidato(6-)]-trihydrogen [Gd-MS-325]",content of Gd-MS-325 (HPLC),"[1]; 95° C. (6 hours), for comparison",98.9%
same,content of Gd-MS-325 (HPLC),"[1]; in-situ formulation refluxed for 48 hours, low content and yellow coloration indicate decomposition",96.3%
same,binding to human serum albumin (HSA),[2],binds to human serum albumin (HSA)
same,retention in the intravascular space,[3],retained in the intravascular space
